Results taken from publication PMC3091653, “A new family of phosphoinositide phosphatases in microorganisms: identification and biochemical analysis” (BMC Genomics, 2010).

Biological target: T1, LM1 (Leishmania major, UniProt Q4QBX1)
T1 construct: gene LMJF_22_0250; pET14, His6-tagged (kept), frame shift of original clone removed by mutagenesis; E. coli BL21 (DE3)
Assay: malachite green phosphate release
Format: biochemical
Settings: pH 6, 37°C, 100-125 μM substrate

T1 sequence (Q4QBX1 entry or part of it): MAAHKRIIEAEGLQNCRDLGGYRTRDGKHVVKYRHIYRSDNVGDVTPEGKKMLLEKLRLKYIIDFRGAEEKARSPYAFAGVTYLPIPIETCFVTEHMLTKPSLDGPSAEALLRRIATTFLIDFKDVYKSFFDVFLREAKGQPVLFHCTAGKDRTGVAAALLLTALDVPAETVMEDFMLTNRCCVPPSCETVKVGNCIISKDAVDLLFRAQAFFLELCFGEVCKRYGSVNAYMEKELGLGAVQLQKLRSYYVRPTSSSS

CCCCCCCC(=O)OC[C@H](COP(=O)(O)O[C@@H]1[C@H](O)[C@H](OP(=O)(O)O)[C@@H](O)[C@H](O)[C@H]1O)OC(=O)CCCCCCC [diC8-PI(3)P]
malachite green phosphate release: Both Lmo1935 and LM1 show also activity towards mono-phosphorylated PIs
